Among the test systems are HOP-92 NSCLC; M19-MEL melanoma; HCC-2998 colon; LXFL 529 NSCLC; DMS 273 small cell lung; M14 melanoma; HOP-18 NSCLC; RXF 393 renal; HS 578T breast; DU-145 prostate; DLD-1 colon; T-47D breast.
Assay in all cases: DTP human tumour cell line panel, 48 h

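Five compound concentrations were applied to cells in 96-well plates for 48 hours; endpoints were derived by simple linear interpolation of the resulting dose-response curve. TGI: total growth inhibition.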

From PubChem BioAssay (NCI) come the findings set out here.

On to `Cc1cc(NCCCCCCCNc2cc(C)nc3cc([N+](=O)[O-])ccc23)c2ccc([N+](=O)[O-])cc2n1`, for which the TGI is 47 µM in the assay on HOP-92 NSCLC; 35.9 µM with M19-MEL melanoma; over 55.6 µM in the assay with HCC-2998 colon; 3.14 µM with LXFL 529 NSCLC; 15.5 µM in the assay on DMS 273 small cell lung; 41.2 µM in the assay on M14 melanoma. In addition, the concentration for total growth inhibition (TGI) in the assay on HOP-18 NSCLC is 31.1 µM; in the assay on RXF 393 renal it was 22.9 µM; in the assay on HS 578T breast it was 5.53 µM; in the assay on DU-145 prostate, 11 µM; in the assay on DLD-1 colon it was 3.55 µM; in the assay on T-47D breast it was 18.5 µM.
Take `N#C/C(=C\c1c[nH]c2ccccc12)C(=O)c1ccc(O)c(O)c1`: the TGI is 99.2 µM in the assay with HOP-92 NSCLC; over 100 µM with M19-MEL melanoma; over 100 µM in the assay on HCC-2998 colon; over 100 µM with LXFL 529 NSCLC; over 100 µM in the assay on DMS 273 small cell lung; over 100 µM in the assay with M14 melanoma. Also, the TGI was 93.5 µM in the assay with HOP-18 NSCLC; over 100 µM in the assay on RXF 393 renal; over 100 µM in the assay with HS 578T breast; over 100 µM with DU-145 prostate; over 100 µM in the assay on DLD-1 colon; over 100 µM with T-47D breast.
